# In US10668016B2, “Complexes of abiraterone acetate, process for the preparation thereof and pharmaceutical compositions containing them” (NanGenex Nanotechnology Incorporated, priority 2015, dated 2020):
# Read-outs that look alike come from different tables or passages of the source.
# Key:
# P-glycoprotein (P-gp) = P-glycoprotein (P-gp) (Homo sapiens, UniProt P08183); conditions: cited from earlier work
# [1] = cited from earlier work
# [2] = cited from earlier work; remark: listed apart in the source
# [3] = cited from earlier work; for compound present in feces, % of the administered dose: oral 14C-abiraterone acetate
# [4] = system: serum testosterone and other androgens; conditions: patients, placebo-controlled phase 3 clinical trial; cited from earlier work
# [5] = system: human plasma proteins, albumin and alpha-1 acid glycoprotein; conditions: cited from earlier work
# PAMPA permeability = conditions: comparative in-vitro PAMPA assay
# Description: PAMPA permeability measurements were performed as described by M Kansi et al. (Journal of medicinal chemistry, 41, (1998) pp 1007) with modifications based on S. Bendels et al (Pharmaceutical research, 23 (2006) pp 2525). Permeability was measured in a 96-well plate assay across an artificial membrane composed of dodecane with 20% soy lecithin supported by a PVDF membrane (Millipore, USA). The receiver compartment was phosphate buffered saline (pH 7.0) supplemented with 1% sodium dodecyl sulfate. The assay was performed at room temperature; incubation time was 1-24 hours. The concentration in the receiver compartment was determined by UV-VIS spectrophotometry (Thermo Scientific Genesys S10).
# [6] = Apparent solubility in distilled water; type: physicochemical; conditions: distillated water, room temperature, 100 nm filter
# Excerpt: The samples were dispersed in distillated water and the resulting dispersions were filtered by 100 nm disposable syringe filter. […] The filtrate may contain Abiraterone acetate complex particles which could not be filtrated out using 100 nm pore size filter.
# [7] = 1,000 mg daily, patients with metastatic CRPC
# [8] = high-fat (57% fat, 825 calories) meal
# [9] = low-fat meal (7% fat, 300 calories)
# P-glycoprotein (P-gp), sequence (P08183 whole entry): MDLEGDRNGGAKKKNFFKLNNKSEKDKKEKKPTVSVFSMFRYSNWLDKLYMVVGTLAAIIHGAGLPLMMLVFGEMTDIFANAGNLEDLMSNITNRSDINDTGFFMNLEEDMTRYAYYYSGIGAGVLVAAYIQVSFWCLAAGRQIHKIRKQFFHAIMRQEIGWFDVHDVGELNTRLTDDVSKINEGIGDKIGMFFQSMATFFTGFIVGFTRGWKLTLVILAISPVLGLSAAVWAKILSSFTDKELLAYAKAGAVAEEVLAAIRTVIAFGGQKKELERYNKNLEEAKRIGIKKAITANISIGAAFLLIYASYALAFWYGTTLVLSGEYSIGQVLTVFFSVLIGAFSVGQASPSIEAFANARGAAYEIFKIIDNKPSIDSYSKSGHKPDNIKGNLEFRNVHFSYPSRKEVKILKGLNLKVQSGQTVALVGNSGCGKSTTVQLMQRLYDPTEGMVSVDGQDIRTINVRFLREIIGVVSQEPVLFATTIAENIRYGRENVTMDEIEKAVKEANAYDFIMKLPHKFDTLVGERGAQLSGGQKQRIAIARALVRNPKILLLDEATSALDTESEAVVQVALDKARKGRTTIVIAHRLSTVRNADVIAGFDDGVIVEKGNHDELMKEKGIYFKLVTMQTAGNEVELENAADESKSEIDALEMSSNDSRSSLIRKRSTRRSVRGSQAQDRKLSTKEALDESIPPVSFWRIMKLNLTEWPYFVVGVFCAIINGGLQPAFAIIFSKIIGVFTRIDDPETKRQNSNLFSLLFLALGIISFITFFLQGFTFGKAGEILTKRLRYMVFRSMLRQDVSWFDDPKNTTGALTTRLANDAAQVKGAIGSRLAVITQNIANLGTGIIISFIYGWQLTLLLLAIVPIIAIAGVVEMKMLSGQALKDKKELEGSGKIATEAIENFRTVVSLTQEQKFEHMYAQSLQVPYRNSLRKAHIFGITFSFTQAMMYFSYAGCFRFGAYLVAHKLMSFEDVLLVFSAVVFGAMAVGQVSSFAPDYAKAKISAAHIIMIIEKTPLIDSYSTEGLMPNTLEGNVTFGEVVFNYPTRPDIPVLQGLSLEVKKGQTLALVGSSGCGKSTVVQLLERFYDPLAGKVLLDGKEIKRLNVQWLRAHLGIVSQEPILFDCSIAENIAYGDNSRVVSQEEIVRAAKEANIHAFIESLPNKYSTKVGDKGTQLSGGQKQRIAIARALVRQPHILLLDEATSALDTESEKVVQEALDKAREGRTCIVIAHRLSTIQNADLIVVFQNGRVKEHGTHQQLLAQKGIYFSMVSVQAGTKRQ
compound,measurement,setting,value
"CC(=O)O[C@H]1CC[C@@]2(C)C(=CC[C@@H]3[C@@H]2CC[C@]2(C)C(c4cccnc4)=CC[C@@H]32)C1 [Abiraterone acetate, (3β)-17-(3-pyridinyl) androsta-5,16-dien-3-yl acetate]",P-gp inhibition,P-glycoprotein (P-gp); not told,inhibitor
same,P-gp substrate,P-glycoprotein (P-gp); not told,not substrates
same,steady-state AUC (mean±SD),[1]; [7],993 ± 639 ng·h/mL
same,steady-state Cmax (mean±SD),[1]; [7],226 ± 178 ng/mL
same,Abiraterone acetate plasma concentrations,[1]; below detectable levels in >99% of the analyzed samples,< 0.2 ng/mL
same,increase in the mean AUC when dose doubled,"[1]; dose doubled from 1,000 to 2,000 mg",8%
same,Abiraterone AUC0-∞ higher with food,[1]; [8],~10 fold
same,Abiraterone Cmax higher with food,[1]; [8],approximately 17 fold
same,Abiraterone AUC0-∞ higher with food,[1]; [9],~5 fold
same,Abiraterone Cmax higher with food,[1]; [9],approximately 7 fold
same,median time to reach maximum plasma Abiraterone concentrations,"[1]; oral, patients with metastatic CRPC",2 h
same,Abiraterone AUC0-∞ (exposure) increase (positive food effect),[1]; single dose,≤ 10 fold
same,Abiraterone Cmax increase (positive food effect),[1]; single dose,up to 17 fold
same,"Abiraterone accumulation: steady-state AUC compared to a single 1,000 mg dose",[1]; steady-state,2 fold
same,Solubility in water,[2],practically insoluble
same,"compound present in feces, % of the administered dose",[3],approximately 55%
same,Effect on serum testosterone and other androgens,[4],decreased
C[C@]12CC[C@H](O)CC1=CC[C@@H]1[C@@H]2CC[C@]2(C)C(c3cccnc3)=CC[C@@H]12 [Abiraterone],P-gp substrate,"P-glycoprotein (P-gp); in vitro, clinically relevant concentrations",not substrates
same,"compound present in feces, % of the administered dose",[3],~22%
same,bound to human plasma proteins,[5],> 99%
C[C@]12CC[C@H](OS(=O)(=O)O)CC1=CC[C@@H]1[C@@H]2CC[C@]2(C)C(c3ccc[n+]([O-])c3)=CC[C@@H]12 [N-oxide Abiraterone sulphate],share of exposure of circulating metabolite in human plasma,[3]; oral 14C-abiraterone acetate capsules,about 43%
"(3β)-17-(3-pyridinyl) androsta-5,16-dien-3-yl acetate [Abiraterone acetate]",PAMPA permeability,PAMPA permeability,below 0.1*10^−6 cm/s
same,Apparent solubility,[6],< 4 µg/mL
